Counter-ions that a name gives are not always drawn.
Experiment: rotating disk dissolution test
Assay type: physicochemical
Conditions: 300 rpm; for Rotating Disk Dissolution Rate (RDDR): crystalline salt, 20 mg pellet, about 500 ml dissolution medium at 25° C., slope normalized to initial exposed surface area
Description: In a preferred aspect, the salts of the present invention are crystalline salts. A crystalline salt of the invention dissolves slower than the crystalline maleate salt of the same compound under standard conditions of temperature, pressure, and fluid flow. Preferably, the dissolution rate of a crystalline salt of the invention, when measured by a rotating disk dissolution test, is less than 50% of that of a crystalline maleate salt of the same compound. More preferably, the dissolution rate is less than 25% of that of a crystalline maleate salt of the same compound. More preferably, the dissolution rate is less than 10% of that of a crystalline maleate salt of the same compound. For example, under the standard conditions in a rotating disc dissolution test, the maleate salt crystals dissolved at a rotating disc dissolution rate (RDDR) of 0.44 mmole sec^−1 cm^−2, whereas the xinafoate salt crystals dissolved at a rate of 0.03 mmole sec^−1 cm^−2 (see FIG. 1). In preferred embodiments, the salt of the invention the salt has a dissolution rate into aqueous solution of about 0.40 mmole sec^−1 cm^−2 or less. In more preferred embodiments, the salt of the invention the salt has a dissolution rate into aqueous solution of about 0.20 mmole sec^−1 cm^−2 or less. In more preferred embodiments, the salt of the invention the salt has a dissolution rate into aqueous solution of about 0.05 mmole sec^−1 cm^−2 or less.
Dissolution rates of sumanirole from xinafoate and maleate crystalline salts were determined using a rotating disk apparatus. In this apparatus, a die containing a pellet comprising a substance of interest is attached to an arm connected to a small motor. The die is submerged in about 500 ml of a dissolution medium at 25° C., and rotated at 300 rpm. The concentration of a compound released into solution is measured in a series of time points using an in situ UV/vis absorbance dip probe linked to a digital computer. For testing the dissolution rates of sumanirole xinafoate and sumanirole maleate crystalline salts, 20 mg of the xinafoate crystalline salt and 20 mg of the maleate crystalline salt were each pressed into pellets of uniform shape at 1000 pounds (3700 psi) for 1 minute. Each pellet was then subjected to dissolution in a rotating disc dissolution apparatus. Measurements of the amount of sumanirole dissolved into the medium, recorded as milligrams of free base equivalent of sumanirole, were plotted against time (FIG. 1). The slope of each curve, normalized to the initial exposed surface area of each disk, was used to calculate a Rotating Disk Dissolution Rate (RDDR) for each salt.

Row | SMILES | Rotating Disk Dissolution Rate (RDDR) [mmole sec^−1 cm^−2] | Rotating Disk Dissolution Rate (RDDR) (listed as maleate salt) [mmole sec^−1 cm^−2] | Rotating Disk Dissolution Rate (RDDR) (listed as xinafoate salt) [mmole sec^−1 cm^−2] | dissolution rate relative to the rate of the sumanirole maleate crystalline salt (rotating disk dissolution, 25° C.)
1 | CN[C@@H]1Cc2cccc3[nH]c(=O)n(c23)C1 [sumanirole maleate, (R)-5,6-dihydro-5-(methylamino)-4H-imidazo[4,5,1-ij]quinolin-2(1H)-one, reference compound] | 0.44 | 0.44 |  | 
2 | CN[C@@H]1Cc2cccc3[nH]c(=O)n(c23)C1 [sumanirole xinafoate, (R)-5,6-dihydro-5-(methylamino)-4H-imidazo[4,5,1-ij]quinolin-2(1H)-one] | 0.030 |  | 0.03 | less than 10%
